Values of other authors, collected in US20070213332A1, “Prodrugs Of Substituted Amino Heterobicycles Which Modulate The Function Of The Vanilloid-1 Receptor (Vr1)” (priority 2004, published 2007).

Target: VR1 (Rattus norvegicus, UniProt O35433)
Conditions: Walpole et al., J. Med. Chem., 37:1942, 1994

Chain of VR1 (O35433 whole entry): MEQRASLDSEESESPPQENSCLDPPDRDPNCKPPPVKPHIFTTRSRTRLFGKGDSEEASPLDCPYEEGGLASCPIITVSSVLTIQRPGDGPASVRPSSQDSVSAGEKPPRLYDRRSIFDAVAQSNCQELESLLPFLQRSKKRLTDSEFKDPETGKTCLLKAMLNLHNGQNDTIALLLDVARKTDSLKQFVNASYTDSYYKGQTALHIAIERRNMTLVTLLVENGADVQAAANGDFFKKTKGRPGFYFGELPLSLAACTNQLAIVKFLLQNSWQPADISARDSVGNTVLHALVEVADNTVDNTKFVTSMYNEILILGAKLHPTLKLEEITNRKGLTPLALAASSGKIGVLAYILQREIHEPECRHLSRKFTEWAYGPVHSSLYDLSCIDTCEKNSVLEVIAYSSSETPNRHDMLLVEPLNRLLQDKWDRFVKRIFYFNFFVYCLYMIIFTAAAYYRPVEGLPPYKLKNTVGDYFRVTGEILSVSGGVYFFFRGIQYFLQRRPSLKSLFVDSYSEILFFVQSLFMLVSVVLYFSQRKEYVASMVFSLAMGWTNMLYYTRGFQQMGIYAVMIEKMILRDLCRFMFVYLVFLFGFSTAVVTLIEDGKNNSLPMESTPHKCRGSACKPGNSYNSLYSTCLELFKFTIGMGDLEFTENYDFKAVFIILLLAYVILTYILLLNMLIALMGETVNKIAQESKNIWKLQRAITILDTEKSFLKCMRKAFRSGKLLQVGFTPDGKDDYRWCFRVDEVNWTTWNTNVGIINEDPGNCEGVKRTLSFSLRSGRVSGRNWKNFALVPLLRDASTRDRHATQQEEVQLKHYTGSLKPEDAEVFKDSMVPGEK

Oc1cc2c(cc1O)CN(C(=S)NCCc1ccc(Cl)cc1)CCC2 [capsazepine]
IC50: 420 nM
